Results from patent US9260375B2, “Metallo-β-lactamase inhibitors” (priority 2005, dated 2016).

Columns and labels:
[1] = system: IMP-1 producing Pseudomonas aeruginosa strain PAO1/pMS363; type: cell-based; details: no inhibitor, in µg/mL
Text: IMP-1 producing Pseudomonas aeruginosa strain PAO1/pMS363 (FEMS Microbiology Letters 1994, 121, 175) was used for evaluating the inhibitory effect of maleic acid derivatives on the resistance against carbapenem by the metallo-β-lactamase in bacteria.

[2] = biological target: T1, VIM-2 (UniProt Q5U7L7); assay: biochemical; details: nitrocefin 100 μM, VIM-2 1.5 nM, ZnSO4 100 μM, 50 mM HEPES pH 7.5, room temperature 20 min; read-out: IC50 of each inhibitor against VIM-2
T1 construct: His tag (C); made in house; host or cells: E. coli DH5α
Method: (§1) The PCR product was integrated into pTrcHis2 TOPO vector (Invitrogen), and then introduced into E. coli DH5α (TOYOBO) for culture under the induction of 0.5 mM Isopropyl-β-D-(−)-thiogalactopyranoside (Wako) at 37° C. for 3 h to express IMP-1. After recovering the bacterial cells, the periplasmic fraction was extracted by ocmotic shock with sucrose to refine the IMP-1 by Ni-NTA Slurry (QIAGEN) with the His tag at the C-terminus.
(§2) In order to determine the inhibitory activity of metallo-β-lactamase, a 50 mM HEPES (pH 7.5) buffer (referred to hereinafter as “buffer”) was used, and nitrocefin (Oxoid) with the final concentration of 100 μM was used as a substrate. A test drug (material to be tested: compound having an Example Number shown in Table 2) was added to each well of a 96-well plate, into which nitrocefin was added and mixed. Then, IMP-1 or VIM-2 was added to each well in the final concentration of 1 nM or 1.5 nM, respectively to react the mixture at room temperature for 20 min. In this case, ZnSO4 was added in the final concentration of 100 μM in order to exclude the inhibitory effect by the chelate effect. Enzyme inhibiting activity was determined by measuring the hydrolysis activity of nitrocefin at a wave length of 490 nm with ARVOsx microplate reader (Wallac).

[3] = biological target: T2, IMP-1 (Serratia marcescens, UniProt P52699); assay: biochemical; details: nitrocefin 100 μM, IMP-1 1 nM, ZnSO4 100 μM, 50 mM HEPES pH 7.5, room temperature 20 min; read-out: IC50 of each inhibitor against IMP-1
T2 construct: The total length of IMP-1 as a metallo-β-lactamase was amplified by PCR; His tag (C); made in house; host or cells: E. coli DH5α, pTrcHis2 TOPO vector, periplasmic fraction
T2 sequence (P52699 19-246 limits assumed): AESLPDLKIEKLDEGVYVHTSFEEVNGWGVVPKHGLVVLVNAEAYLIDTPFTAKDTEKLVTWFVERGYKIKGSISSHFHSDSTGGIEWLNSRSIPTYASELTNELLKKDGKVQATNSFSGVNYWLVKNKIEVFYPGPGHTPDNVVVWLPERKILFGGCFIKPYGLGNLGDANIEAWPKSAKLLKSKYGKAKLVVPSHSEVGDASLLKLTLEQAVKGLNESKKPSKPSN
Method: as §1, §2

SMILES: C[C@@H](O)[C@H]1C(=O)N2C(C(=O)[O-])=C(SC3Cn4cnc[n+]4C3)[C@H](C)[C@H]12 (stereo partly shown) [BIPM, biapenem]
- MIC of β-lactam drugs, β-lactam alone [1]: 64-128

SMILES: CC(C)(O/N=C(\C(=O)N[C@@H]1C(=O)N2C(C(=O)[O-])=C(C[n+]3ccccc3)CS[C@H]12)c1csc(N)n1)C(=O)O [CAZ, ceftadizime]
- MIC of β-lactam drugs, β-lactam alone [1]: 2048

SMILES: CO/N=C(\C(=O)N[C@@H]1C(=O)N2C(C(=O)[O-])=C(C[N+]3(C)CCCC3)CS[C@H]12)c1csc(N)n1 [CFPM, cefepime]
- MIC of β-lactam drugs, β-lactam alone [1]: 2048

SMILES: C[C@@H](O)[C@H]1C(=O)N2C(C(=O)O)=C(S[C@H]3C[C@@H](C(=O)N4CC[C@H](NC(=O)CNC(=N)N)C4)N(C)C3)[C@H](C)[C@H]12 [CS-023, (−)-(4R,5S,6S)-3-[[(3S,5S)-5-[(S)-3-(2-guanidinoacetylamino)pyrrolidin-1-ylcarbonyl]-1-methylpyrrolidin-3-yl]thio]-6-[(R)-1-hydroxyethyl]-4-methyl-7-oxo-azabicyclo[3.2.0]hept-2-ene-2-carboxylic acid]
- MIC of β-lactam drugs, β-lactam alone [1]: 256

SMILES: CO/N=C(\C(=O)N[C@@H]1C(=O)N2C(C(=O)O)=C(CSc3nc(=O)c(=O)[nH]n3C)CS[C@H]12)c1csc(N)n1 [CTRX, ceftriaxone]
- MIC of β-lactam drugs, β-lactam alone [1]: 4096

SMILES: C[C@@H](O)[C@H]1C(=O)N2C(C(=O)O)=C(S[C@@H]3CN[C@H](CNS(N)(=O)=O)C3)[C@H](C)[C@H]12 [DRPM, doripenem]
- MIC of β-lactam drugs, β-lactam alone [1]: 128

SMILES: CC/C(C(=O)O)=C(\Cc1ccccc1)C(=O)O [Example 11, 2-benzyl-3-ethylmaleic acid disodium]
- IC50 [2]: 3000 nM
- IC50 [3]: 290 nM

SMILES: C/C(C(=O)O)=C(/C(=O)O)C(C)C [Example 22, 2-isopropyl-3-methylmaleic acid disodium]
- IC50 [2]: 7300 nM
- IC50 [3]: 2400 nM

SMILES: CC(C)/C(C(=O)O)=C(/C(=O)O)C1CCCCC1 [Example 43, 2-Cyclohexyl-3-isopropylmaleic acid disodium]
- IC50 [2]: 160 nM
- IC50 [3]: 190 nM

SMILES: CC(C)/C(C(=O)O)=C(/C(=O)O)C1CCOCC1 [Example 51, 3-Isopropyl-2-(tetrahydropyran-4-yl)maleic acid disodium]
- IC50 [2]: 1800 nM
- IC50 [3]: 1900 nM

SMILES: CC(C)/C(C(=O)O)=C(\Cc1cccnc1)C(=O)O [Example 54, 2-Isopropyl-3-[(pyridine-3-yl)methyl]maleic acid disodium]
- IC50 [2]: 5300 nM
- IC50 [3]: 2800 nM

SMILES: CC/C(C(=O)O)=C(\SC(C)C)C(=O)O [Example 66, 3-Ethyl-2-isopropylthiomaleic acid disodium]
- IC50 [2]: 14000 nM
- IC50 [3]: 1200 nM

SMILES: CC(C)/C(C(=O)O)=C(\Cc1ccc(C(N)=O)cc1)C(=O)O [Example 72, 2-(4-Carbamoylbenzyl)-3-isopropylmaleic acid disodium]
- IC50 [2]: 600 nM
- IC50 [3]: 1400 nM

SMILES: CC(C)/C(C(=O)O)=C(\Cc1ccc(O)cc1)C(=O)O [Example 86, 2-(4-Oxidobenzyl)-3-isopropylmaleic acid trisodium]
- IC50 [2]: 1900 nM
- IC50 [3]: 560 nM

SMILES: CC(C)/C(C(=O)O)=C(\Cc1ccc(OCCN)cc1)C(=O)O [Example 92, 2-[4-(2-aminoethoxy)benzyl]-3-isopropylmaleic acid disodium]
- IC50 [2]: 300 nM
- IC50 [3]: 980 nM

SMILES: C[C@@H](O)[C@H]1C(=O)N2C(C(=O)O)=C(SCCN=CN)C[C@H]12 [IPM, imipenem]
- MIC of β-lactam drugs, β-lactam alone [1]: 128-256
